Reference: patent US20100173918A1, “METHODS AND COMPOSITIONS FOR DETERMINING THE EFFICACY OF BREAST CANCER THERAPEUTICS” (TARGETED MOLECULAR DIAGNOSTICS, LLC, priority 2007, published 2010)
“And” between values parts separate entries of the source, which are not always exact repeats. Equal entries are not always repeated.

Experiments:
[1] = tested on: patients with IBC (inflammatory breast cancer); test: EGF103009 open-label study of lapatinib monotherapy: clinical response (skin criteria / RECIST) and progression-free survival; type: in vivo, human; parameters: key to RECIST Response: CR: complete response; PR: partial response; SD: stable disease; details: for RECIST Response / Skin Response: individual patient, lapatinib 1,500 mg once daily
Source text: Patients: Eligible adults (18 years of age) had histologically confirmed IBC (Inflammatory breast cancer) and a clinical diagnosis of IBC (e.g., presence of diffuse erythema and edema [peau d'orange], with or without an underlying palpable mass, involving the majority of the skin of the breast). Pathologic evidence of dermal lymphatic invasion was not required. […] EGF103009 was approved by the institutional review board from each participating institution, and written informed consent was obtained from all patients.
Tumor biomarkers were analyzed in a blinded manner at a central Clinical Laboratory Improvement Amendments—certified College of American Pathology reference laboratory (Targeted Molecular Diagnostics, Westmont, Ill.) (Spector N. L., et al., J Clin Oncol 23:2502-2512 (2005)). […] The study design consisted of two stages; two responses were required in the first fifteen patients in either cohort before an additional fifteen patients were enrolled in that cohort (Green-Dahlberg design).
Patients underwent regular physical examinations and evaluations of performance status, body weight, CBC, serum chemistry, left ventricular ejection fraction by multiple gated acquisition scan or echocardiogram, and if applicable, digital photography to evaluate changes in chest wall/[…] disease or assessment by imaging studies, computed tomography scan or magnetic resonance imaging.
Efficacy and Safety Evaluation: Clinical response was assessed at 4-week intervals and imaging performed at 8-week intervals until disease progression or withdrawal from study. […] Toxicity was graded according to the National Cancer Institute Common Terminology Criteria (NC1-CTCAE), version 3.0.
Statistical Analysis: The statistical focus of the study was to test the null hypothesis that the overall response rate (ORR) is no more than 15% versus the alternative hypothesis that this rate is at least 40%. Each cohort consisted of two stages, such that if there were fewer than two responses at the end of stage 1 (15 patients), then the cohort would be closed in favor of the null hypothesis. […] Kaplan-Meier estimates of progression-free survival ([…]) were computed separately for cohort A and B. For this exploratory analysis, there were no statistical comparisons made between cohorts.

[2] = EGF103009 study of lapatinib monotherapy: safety / adverse events; type: in vivo, human
[3] = Cohort A (HER-2 overexpressing IBC)
[4] = Cohort B (EGFR expression without HER-2 overexpression)
[5] = N = 45, >20% decrease in LVEF, asymptomatic and/or below lower limit of normal
[6] = N = 45, mostly musculoskeletal pain (76% of cases)
[7] = N = 45, one report of rash was not graded

CS(=O)(=O)CCNCc1ccc(-c2ccc3ncnc(Nc4ccc(OCc5cccc(F)c5)c(Cl)c4)c3c2)o1 [lapatinib, Lapatinib ditosylate]
time by which all responses in the skin occurred (first assessment) ([1]; cohort A): ≤ 4 week
patients with response to lapatinib among those who received prior trastuzumab therapy ([1]; cohort A, 15 patients with prior trastuzumab): six
patients who experienced response ([1]; cohort A, HER-2+ IBC, n = 30): 15 of 30
patients whose best clinical response was a CR in chest wall/skin or RECIST-measurable lesions ([1]; cohort A, n = 30): 7%
patients with a PR in chest wall/skin and/or RECIST-measurable lesions as best response ([1]; cohort A, n = 30): 43%
patients who responded ([1]; cohort A, tumors coexpressing pHER-2 and pHER-3): nine of 10
patients who responded ([1]; cohort A, tumors not coexpressing pHER-2 and pHER-3): four of 14
median PFS ([1]; cohort A, median follow-up 15.3 weeks): 14 weeks
patients with a clinical response (PR in skin/chest disease) ([1]; cohort B, n = 15): one of 15
median PFS ([1]; cohort B, median follow-up 4.1 weeks): 4 weeks
RECIST Response [1, 3]: PR* (4×) and PR (3×) and SD (7×)
Skin Response [1, 3]: PR (more than 50% decrease in extent of skin disease from baseline documented by digital photography)
RECIST Response [1, 4]: SD
Skin Response [1, 4]: PR (more than 50% decrease in extent of skin disease from baseline documented by digital photography)
Anemia, Grade > 3 % ([2]; N = 45): 4%
Anemia, Grade > 3 No. ([2]; N = 45): 2
Anemia, Total % ([2]; N = 45): 7%
Anemia, Total No. of Patients ([2]; N = 45): 3
Anorexia, Grade > 3 % ([2]; N = 45): 2%
Anorexia, Grade > 3 No. ([2]; N = 45): 1
Anorexia, Total % ([2]; N = 45): 22%
Anorexia, Total No. of Patients ([2]; N = 45): 10
Constipation, Grade > 3 % ([2]; N = 45): 0%
Constipation, Grade > 3 No. ([2]; N = 45): 0
Constipation, Total % ([2]; N = 45): 7%
Constipation, Total No. of Patients ([2]; N = 45): 3
Decreased LVEF, Grade > 3 % ([2]; N = 45): 0%
Decreased LVEF, Grade > 3 No. ([2]; N = 45): 0
Diarrhea, Grade > 3 % ([2]; N = 45): 11%
Diarrhea, Grade > 3 No. ([2]; N = 45): 5
Diarrhea, Total % ([2]; N = 45): 60%
Diarrhea, Total No. of Patients ([2]; N = 45): 27
Dyspnea, Grade > 3 % ([2]; N = 45): 11%
Dyspnea, Grade > 3 No. ([2]; N = 45): 5
Dyspnea, Total % ([2]; N = 45): 20%
Dyspnea, Total No. of Patients ([2]; N = 45): 9
Edema, Grade > 3 % ([2]; N = 45): 2%
Edema, Grade > 3 No. ([2]; N = 45): 1
Edema, Total % ([2]; N = 45): 13%
Edema, Total No. of Patients ([2]; N = 45): 6
Elevated ALT/AST, Grade > 3 % ([2]; N = 45): 4%
Elevated ALT/AST, Grade > 3 No. ([2]; N = 45): 2
Elevated ALT/AST, Total % ([2]; N = 45): 7%
Elevated ALT/AST, Total No. of Patients ([2]; N = 45): 3
Elevated alkaline phosphatase, Grade > 3 % ([2]; N = 45): 0%
Elevated alkaline phosphatase, Grade > 3 No. ([2]; N = 45): 0
Elevated alkaline phosphatase, Total % ([2]; N = 45): 9%
Elevated alkaline phosphatase, Total No. of Patients ([2]; N = 45): 4
Fatigue, Grade > 3 % ([2]; N = 45): 0%
Fatigue, Grade > 3 No. ([2]; N = 45): 0
Fatigue, Total % ([2]; N = 45): 24%
Fatigue, Total No. of Patients ([2]; N = 45): 11
Hyperbilirubinemia, Grade > 3 % ([2]; N = 45): 2%
Hyperbilirubinemia, Grade > 3 No. ([2]; N = 45): 1
Hyperbilirubinemia, Total % ([2]; N = 45): 9%
Hyperbilirubinemia, Total No. of Patients ([2]; N = 45): 4
Infection, Grade > 3 % ([2]; N = 45): 4%
Infection, Grade > 3 No. ([2]; N = 45): 2
Infection, Total % ([2]; N = 45): 13%
Infection, Total No. of Patients ([2]; N = 45): 6
Nausea, Grade > 3 % ([2]; N = 45): 0%
Nausea, Grade > 3 No. ([2]; N = 45): 0
Nausea, Total % ([2]; N = 45): 24%
Nausea, Total No. of Patients ([2]; N = 45): 11
Pain, Grade > 3 % ([2]; N = 45): 16%
Pain, Grade > 3 No. ([2]; N = 45): 7
Pleural effusion, Grade > 3 % ([2]; N = 45): 9%
Pleural effusion, Grade > 3 No. ([2]; N = 45): 4
Pleural effusion, Total % ([2]; N = 45): 11%
Pleural effusion, Total No. of Patients ([2]; N = 45): 5
Pruritus, Grade > 3 % ([2]; N = 45): 0%
Pruritus, Grade > 3 No. ([2]; N = 45): 0
Pruritus, Total % ([2]; N = 45): 11%
Pruritus, Total No. of Patients ([2]; N = 45): 5
Rash, Grade > 3 % ([2]; N = 45): 0%
Rash, Grade > 3 No. ([2]; N = 45): 0
Vomiting, Grade > 3 % ([2]; N = 45): 0%
Vomiting, Grade > 3 No. ([2]; N = 45): 0
Vomiting, Total % ([2]; N = 45): 20%
Vomiting, Total No. of Patients ([2]; N = 45): 9
grade ½ diarrhea ([2]; N = 45): 49%
grade ½ musculoskeletal pain ([2]; N = 45): 42%
grade ½ skin rash ([2]; N = 45): 36%
Decreased LVEF, Total % [2, 5]: 7%
Decreased LVEF, Total No. of Patients [2, 5]: 3
Pain, Total % [2, 6]: 58%
Pain, Total No. of Patients [2, 6]: 26
Rash, Total % [2, 7]: 36%
Rash, Total No. of Patients [2, 7]: 16
tolerability of lapatinib monotherapy ([2]; both cohorts): generally well tolerated
